According to patent publication US8497240B2 (priority 2006, dated 2013):
Where “and” joins values, the source holds several entries; their conditions need not be identical. Identical values can stand only once. Like-named read-outs stand apart in the source and are kept apart here. Ends that are not written are not given here.

Experiments:
[1] = assay type: in vivo, NIH/Swiss mice
Description: (§1) In FIG. 3A, bars represent mean±sd, n=6-10. […] Gavage (1.5 g/kg) was given at t=0, Sample was taken at t=30 min. […] In FIG. 3B, points represent mean±sem, n=8-15.
Peptide was injected IP at t=−5 minutes into 4-hour fasted NIH/Swiss female mice. […] In FIG. 17 points represent mean+/−sem. […] Samples were taken at t=60, t=120 and t=180.

[2] = assay type: in vivo, NIH/Swiss mice; details: for Basal Glucose Lowering at Peptide Conc. of 80 nmol/kg / Basal Gluc. Low. 80 nmol/Kg: AUC240
Description: as §1
Points represent mean±sem.

[3] = Intravenous glucose tolerance test (IVGTT), i.v. infusion; assay type: in vivo, rat; details: for IVGTT > = < Compared to 0601GIP3794 / Standard IVGTT assay IV infusion (insulin AUC 0-30 min): rat; for insulinotropic response to an intravenous glucose challenge (IVGTT assay) / insulin levels prior to the glucose challenge: 100 pmol/kg/min infusion, rats
Description: In the typical IVGTT assays the test sample was administered by IV infusion. The IV infusion of sample was initiated at t=−30 min and continued through t=90. IV glucose was given at t=0. To determine a duration of action using the IVGTT assay, the sample was injected SC as a single injection at one time point indicated (e.g., t=−240, −120, −60 or −30) prior to administration of glucose. IV glucose was given at t=0.
As described, fed, isoflurane anesthetized HSD male rats were intubated and cannulated via femoral artery and vein and allowed to stabilize for 1 hour. […] At t=0, an i.v. bolus of 5.7 mmol/kg D-glucose was administered over 2 minutes. Samples for glucose measurement and insulin concentrations were taken at various time points before and after (0 to 90 minutes) glucose infusion.

[4] = conscious rats, cited from earlier work; for EC(50) nmol/kg for inhibition of gastric emptying: subcutaneous 5 min before gavage
[5] = test system: cardiomyocyte Gs-coupled receptors; test: cAMP production in neonatal cardiomyocytes (HTRF, Gs-coupled receptor activation); assay type: cell-based, rat; details: for EC50: neonatal rat cardiomyocytes
Description: Activation of cardiomyocyte Gs- and Gi-coupled receptors was determined as a measure of cAMP production.
Neonatal cardiomyocytes were isolated using a commercially available system. […] Sprague Dawley neonatal rats (1-2 days old) were decapitated and the beating heart dissected out into digestion buffer (Cellutron D1 buffer) to dissociate cells. […] The resuspended cells incubated in buffer (Cellutron D3 buffer) for sufficient time to allow optimal dispersion and minimize the need for pipetting to break up clumps. Cells released from the first 2 digestions were discarded since a significant portion of these is red blood cells. Resuspended cells were filtered and allowed to pre-plate for 1 hour on plastic in an incubator in NS media (Cellutron, N.J.) in order to remove fibroblasts. After 1 hour of pre-plating, floating cells are removed and the flask rinsed with NS media. The floating cells and the cells in the rinse media were combined and counted. Residual red blood cells, which are smaller that the cardiac myocytes, were not counted.
At Day 1, the NS media was replaced with fresh NS media.
Dose response was determined.
For Gs assays the positive control was 10 uM forskolin and negative control was buffer. For Gi assays the positive control was buffer and the negative control was 10 uM forskolin.

pancreatic CCK receptor = details: cited from earlier work
[6] = IVGTT duration of action assay (single SC injection before glucose); assay type: in vivo, rat
Description: To determine a duration of action using the IVGTT assay, the sample was injected SC as a single injection at one time point indicated (e.g., t=−240, −120, −60 or −30) prior to administration of glucose. IV glucose was given at t=0.

[7] = normal men, infusion; cited from earlier work
human GIP receptor = target: T1, human GIP receptor (Homo sapiens, UniProt P48546); test: biochemical; assay type: binding; details: read-out: (% Inh 10 nm, GIP-LF Assay)
T1 construct: expressed in transfected cells; host or cells: HEK293 (HEK-GIPR), membranes
T1 sequence (P48546 22-466): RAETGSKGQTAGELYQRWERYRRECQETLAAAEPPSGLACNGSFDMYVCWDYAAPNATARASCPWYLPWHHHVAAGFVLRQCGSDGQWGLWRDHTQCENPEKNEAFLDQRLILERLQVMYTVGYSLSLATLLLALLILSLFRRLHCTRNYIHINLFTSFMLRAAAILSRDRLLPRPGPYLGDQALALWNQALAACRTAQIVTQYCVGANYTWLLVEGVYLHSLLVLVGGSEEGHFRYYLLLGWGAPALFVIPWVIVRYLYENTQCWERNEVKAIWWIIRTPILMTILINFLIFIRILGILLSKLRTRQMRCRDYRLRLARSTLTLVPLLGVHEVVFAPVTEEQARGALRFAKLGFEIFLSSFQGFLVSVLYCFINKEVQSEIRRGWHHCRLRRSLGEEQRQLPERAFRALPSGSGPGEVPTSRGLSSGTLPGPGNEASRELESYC

[8] = assay type: in vivo, db/db mice
Description: Peptide was injected IP at t=0 immediately following baseline sample into 2-hour fasted db/db mice.

[9] = for food intake: mouse, in vivo, ip; for Mouse Food Intake, % basal: dose per compound (4.8 to 25 nmol/Kg)
[10] = Body composition in DIO mice; assay type: in vivo, C57BL/6J mice; details: mouse, in vivo
Excerpt: During the study, the mice can continue to eat their high-fat diet. Water can be provided ad libitum throughout the study.
DIO mice can be implanted with subcutaneous (SC) intrascapular osmotic pumps to deliver either vehicle (50% dimethylsulfoxide (DMSO) in water) or a compound of the invention. […] Body weights and food intake can be measured over regular intervals throughout the study periods. Respiratory quotient (RQ, defined as CO2 production÷O2 consumption) and metabolic rate can be determined using whole-animal indirect calorimetry (Oxymax, Columbus Instruments, Columbus, Ohio). The mice can be euthanized by isoflurane overdose, and an index of adiposity (bilateral epididymal fat pad weight) measured. Moreover, prior to determination of epididymal weight, body composition (lean mass, fat mass) for each mouse can be analyzed using a Dual Energy X-ray Absorptiometry (DEXA) instrument per manufacturer's instructions (Lunar Piximus, GE Imaging System).

[11] = Telemetry of circulatory effects in conscious rats; details: 80 nmol/kg intravenous

Compound: [dAla2, Leu14, beta-Ala31, beta-Ala32] GIP-(1-32)-Exendin-4 (31-39) [Compound 0601GIP4179]
- OGTT/GL (%) ([1]; 30 nmol/kg): −24 30 nmol/kg, %
- OGTT/GL (%) ([1]; 350 nmol/kg): −23 350 nmol/kg %
- Basal Glucose Lowering at Peptide Conc. of 80 nmol/kg ([2]; 80 nmol/kg): −17%, AUC240
- IVGTT > = < Compared to 0601GIP3794 ([3]; in vivo): =

Compound: VIP: vasoactive intestinal peptide (HSDAVFTDNYTRLRKQMAVKKYLNSILN; ends and bridges not checked; UniProt P01282 125-152, looked up)
- inhibition of gastric emptying at doses of 100 μg [4]: either weakly active or inactive

Compound: glucagon: peptide hormone
- inhibition of gastric emptying at doses of 100 μg [4]: either weakly active or inactive

Compound: HAEGTFTSDVSSYLEGQAAKEFIAWLVKGR [GLP-1]
- cAMP activity in cardiomyocytes [5]: very low to no significant activity

Compound: DY(SO3)MGWMDF [CCK-8]
- potency of binding displacement relative to unsulfated CCK-8 or CCK-4 (pancreatic CCK receptor): 1000-5000
- EC(50) nmol/kg for inhibition of gastric emptying [4]: 12.8 nmol/kg

Compound: dAla2-GIP(1-42) acid form [Compound 0601GIP4042]
- basal glucose lowering (% maximal decrease) ([2]; mouse, in vivo): −11%
- insulinotropic response to an intravenous glucose challenge (IVGTT assay) [3]: significant enhancement of the insulinotropic response

Compound: [dAla2, Leu14, Ala18, glu21] GIP-(1-30)-Exendin-4 (31-39) [Compound 0601GIP4285]
- OGTT/GL (%) ([1]; 30 nmol/kg): −17% and −17 30 nmol/kg, %
- OGTT/GL (%) ([1]; 350 nmol/kg): −10 350 nmol/kg %
- Basal Gluc. Low. 80 nmol/Kg ([2]; 80 nmol/kg): −2%,
- Basal Glucose Lowering at Peptide Conc. of 80 nmol/kg ([2]; 80 nmol/kg): −2%, AUC240
- IVGTT > = < Compared to 0601GIP3794 ([3]; in vivo): =

Compound: octylglycine-GIP(1-30)-Exendin-4-(31-39) [Compound 0601GIP4178]
- OGTT/GL (%) ([1]; 350 nmol/kg): −20%
- OGTT response ([1]; mouse, in vivo): −20%
- Basal Glucose Lowering at Peptide Conc. of 80 nmol/kg ([2]; 80 nmol/kg): −13%, AUC240
- basal glucose lowering (% maximal decrease) ([2]; mouse, in vivo): −20%
- insulin levels prior to the glucose challenge [3]: significant rise in insulin levels
- insulinotropic response to an intravenous glucose challenge (IVGTT assay) [3]: diminished insulinotropic response
- IVGTT > = < Compared to 0601GIP3794 ([3]; in vivo): <

Compound: HSDGIFTDSYSRYRKQMAVKKYLAAVLGKRYKQRVKNK-NH2 [PACAP38]
- inhibition of gastric emptying at doses of 100 μg [4]: either weakly active or inactive

Compound: [dAla2]GIP-(1-30)-[Octylglycine 34] Exendin-4 (31-39) [Compound 0601GIP4252]
- Basal Glucose Lowering at Peptide Conc. of 80 nmol/kg ([2]; 80 nmol/kg): −7%, AUC240
- Standard IVGTT assay IV infusion (insulin AUC 0-30 min) ([3]; IV infusion 100 pmol/min/kg): 218
- IVGTT > = < Compared to 0601GIP3794 ([3]; in vivo): =

Compound: Human GIP
- Duration of action in assay (insulin AUC 0-30 min) ([6]; SC inj T = −30 min): 57
- Standard IVGTT assay IV infusion (insulin AUC 0-30 min) ([3]; IV infusion 100 pmol/min/kg): 226

Compound: insulin: peptide hormone
- inhibition of gastric emptying at doses of 100 μg [4]: either weakly active or inactive

Compound: BNP: brain natriuretic peptide
- increase in sodium excretion [7]: 2 fold
- reduction in plasma renin, angiotensin II and aldosterone secretion [7]: 50%

Compound: CC[C@H](C)[C@H](NC(=O)[C@H](CO)NC(=O)[C@H](Cc1ccc(O)cc1)NC(=O)[C@H](CC(=O)O)NC(=O)[C@H](CO)NC(=O)[C@@H](NC(=O)[C@H](Cc1ccccc1)NC(=O)[C@@H](NC(=O)CNC(=O)[C@H](CCC(=O)O)NC(=O)[C@@H](C)NC(=O)[C@@H](N)Cc1ccc(O)cc1)[C@@H](C)O)[C@@H](C)CC)C(=O)N[C@@H](C)C(=O)N[C@@H](CCSC)C(=O)N[C@@H](CC(=O)O)C(=O)N[C@@H](CCCCN)C(=O)N[C@H](C(=O)N[C@@H](Cc1c[nH]cn1)C(=O)N[C@@H](CCC(N)=O)C(=O)N[C@@H](CCC(N)=O)C(=O)N[C@@H](CC(=O)O)C(=O)N[C@@H](Cc1ccccc1)C(=O)N[C@H](C(=O)N[C@@H](CC(N)=O)C(=O)N[C@@H](Cc1c[nH]c2ccccc12)C(=O)N[C@@H](CC(C)C)C(=O)N[C@@H](CC(C)C)C(=O)N[C@@H](C)C(=O)N[C@@H](CCC(N)=O)C(=O)N[C@@H](CCCCN)C(=O)N1CCC[C@H]1C(=O)N[C@@H](CCCCN)C(=O)N[C@@H](CCCCN)C(=O)N[C@@H](C)C(=O)N[C@@H](CCCNC(=N)N)C(=O)N[C@@H](Cc1ccc(O)cc1)C(=O)N[C@@H](CO)C(N)=O)C(C)C)[C@@H](C)CC [Compound 0601GIP4856]
- OGTT/GL (%) ([1]; 30 nmol/kg): −29, %
- inhibition at 0.01 µM (human GIP receptor): 83.7%
- Duration In The Rat IVGTT Assay ([6]; compared with 0601GIP3794 (794), dosed at −120 min): <794@ −120 min
- Basal Gluc. Low. 80 nmol/Kg ([2]; 80 nmol/kg): −3%,

Compound: Y(D-Ala)EGTFISDYSIAMDKIHQQDFVNWLLAQKPSSGAPPPS-NH2 [Compound 0601GIP3794]
- Basal Glucose Lowering in db/db ([8]; 80 nmol/kg, t = 120): −33%, 80 nmol/kg,
- glucose lowering in a diabetic mouse model (FIG. 4) ([8]; db/db mice, IP): pronounced and long-acting effect in lowering glucose
- EC50 ([5]; 30 minutes, read-out: EC50 of cAMP production (this experiment, FIGS. 18A/18B)): 11.7 nM
- EC50 ([5]; read-out: EC50 of cardiomyocyte Gs-coupled receptor activation (three independent experiments)): 29.8 nM
- food intake [9]: did not acutely inhibit food intake
- OGTT/GL (%) ([1]; 10 nmol/kg): −17% 10 nmol/kg
- OGTT/GL (%) ([1]; 350 nmol/kg): −21% 350 nmol/kg,
- OGTT (compared to 0601GIP3794) ([1]; mouse, in vivo): =794
- OGTT ED50 ([1]; mouse, in vivo): ED50 ~2 nmol/kg,
- OGTT response ([1]; mouse, in vivo): −21%
- body composition [10]: slight decrease in percentage body fat with an increase in body protein without a concomitant reduction in body weight
- Duration of action in assay (insulin AUC 0-30 min) ([6]; SC inj T = −30 min): 198
- Duration of action in assay (insulin AUC 0-30 min) ([6]; SC inj T = −60 min): 159
- Duration of action in assay (insulin AUC 0-30 min) ([6]; SC inj T = −120 min): 204
- Duration of action in assay (insulin AUC 0-30 min) ([6]; SC inj T = −240 min): 79
- DOA (duration of action, compared to 0601GIP3794) ([6]; time not stated): =794
- Basal Glucose Lowering at 80 nmol/Kg ([2]; 80 nmol/kg, AUC180): −9%, AUC180
- Basal Glucose Lowering at Peptide Conc. of 80 nmol/kg ([2]; 80 nmol/kg): −7 to −20%,
- glucose lowering profile over 240 min (FIGS. 8-10) ([2]; 2-hour fasted NIH/Swiss mice, IP): gradually increasing activity that peaks at t=120 min, and is more sustained than native GIP or its D-Ala2 version
- glucose lowering in normal mice (FIGS. 3A and 3B) ([2]; NIH/Swiss mice, IP): significantly more efficacious than full length GIP
- GL (glucose lowering, compared to 0601GIP3794) ([2]; mouse, in vivo): =794
- basal glucose lowering (% maximal decrease) ([2]; mouse, in vivo): −20%
- dP/dt [11]: increased dP/dt similarly
- effect on heart rate [11]: transient relative to GIP
- effect on mean arterial pressure [11]: decreased mean arterial pressure
- systolic and diastolic pressures [11]: sustained lowering of systolic and diastolic pressures
- insulin levels prior to the glucose challenge [3]: significant rise in insulin levels
- insulinotropic response to an intravenous glucose challenge (IVGTT assay) [3]: significant enhancement of the insulinotropic response
- IVGTT > = < Compared to 0601GIP3794 ([3]; in vivo): =
- Standard IVGTT assay IV infusion (insulin AUC 0-30 min) ([3]; in vivo, iv): 249

Compound: KCNTATCATQRLANFLVRSSNNLGPVLPPTNVGSNTY [rat amylin]
- Mouse Food Intake, % basal ([9]; 30 min): −58 % basal
- Mouse Food Intake, % basal ([9]; 60 min): −40 % basal
- Mouse Food Intake, % basal ([9]; 120 min): −36.5 % basal
- Mouse Food Intake, % basal ([9]; 180 min): −35.5 % basal
- food intake [9]: significant decrease in food intake within 30 min
- EC(50) nmol/kg for inhibition of gastric emptying [4]: 0.23 nmol/kg

Compound: adrenomedullin: amylin family peptide hormone (YRQSMNNFQGLRSFGCRFGTCTVQKLAHQIYQFTDKDKDNVAPRSKISPQGY; ends and bridges not checked; cysteine pairing not given here; UniProt P35318 95-146, looked up)
- inhibition of gastric emptying at doses of 100 μg [4]: either weakly active or inactive

Compound: neuropeptide Y: peptide hormone of the pancreatic polypeptide family
- inhibition of gastric emptying at doses of 100 μg [4]: either weakly active or inactive
